This is an account of results in paper PMC9038752, “Molecular mechanisms of bifunctional vitamin D receptor agonist-histone deacetylase inhibitor hybrid molecules in triple-negative breast cancer” (Scientific Reports, 2022).

The test system of assay [1] is tubulin acetylation (HDAC6). Put plainly: Western blotting of tubulin acetylation in 4TO7 cells. Format: cell-based, mouse. The following applies: 6 h, western blot. The procedure:
The hybrids were assessed to determine their HDACi and VDR agonist activity as well as their antiproliferative properties relative to DK-406. HDACi activity was assessed in vitro using an acetylated lysine substrate that releases a fluorescent reporter upon HDACi deacetylation and subsequent trypsin digestion. Increasing sidechain length of pyrimidine hybrids enhanced the potency of HDAC6 inhibition, with several compounds inhibiting HDAC6 with a sub-micromolar IC50, similar to that of DK-406 (Fig. 4a). […] Next, we analyzed the effects of compounds on levels of H3K9 and H3K27 acetylation in 4TO7 cells, which are controlled by class I HDACs[29],[30]. […] We also tested the capacity of analogues to induce tubulin acetylation, controlled by class II enzyme HDAC6[32], in 4TO7 cells. […]
Figure 4 (a) Results of in vitro assays for inhibition of purified HDAC2 and HDAC6 by DK-406 and heterocyclic hybrids as measured by inhibition of deacetylation of a fluorometric substrate (see Methods for details). […]
After treatments, 4T07 cells were solubilized in Lysis Buffer (20 mM Tris, pH 8, 150 mM NaCl, 1% Triton X-100, 3,5 mM SDS, 13 mM deoxycholic acid) and proteins extracted were separated on a 4–15% Tris/Glycine/SDS gel (BIO RAD). […] Signal was detected using Clarity ECL chemiluminescent substrates (Bio-Rad) and ChemiDoc Imaging System from the same company was used to quantify the intensity of bands. […]
For orientation: Immunoblotting shows a protein as a band on a membrane.

The test system of a further assay is 4TO7 cells. Put plainly: RNAseq gene expression profiling in 4TO7 cells. It counts as cell-based, mouse. The following applies: relative to control. The procedure:
Cells were treated for 6 h to focus more on genes directly regulated by the VDR, or for 24 or 48 h to gain insight into longer-term effects on gene expression.
McGill Genome Centre performed a quality control before sequencing in paired-end at 50 M reads by Illumina NovaSeq 6000 S4 PE100. Sets of genes regulated in the different conditions were sent to us and downstream analysis were performed.
Table S1 and Table S2 : See Excel files with RNAseq results and analysis
48 hours prior to RNA extraction. Samples were prepared in triplicate and run on Illumina NovaSeq 6000 S4
PE100. For assessing differential gene expression for RNAseq data, the LIMMA package inR was used.
RNAseq results and statistical analyses from D, S, S+D, DK-406, and AM-193 conditions measured relative to
AM-193 for 6 or 24 hours prior to RNA extraction . Samples were prepared in triplicate and run on Illumina
NovaSeq 6000 S4 PE100. For assessing differential gene expression for RNAseq data, the LIMMA package in R was […]

[2] abbreviates: 6 h, RNAseq Supplemental table 2, 1 µM AM-193, 10 µM DK-406, 100 nM 1,25D and SAHA.
The mark [3] stands for this setting: RNAseq Supplemental table 2, 1 µM AM-193, 10 µM DK-406, 100 nM 1,25D and SAHA.
Where [4] appears, read: 6 h, RNAseq Supplemental table 1.
[5] abbreviates: 48 h, RNAseq Supplemental table 1.

Turning to `CCC(CC)(c1ccc(OCCCCCC(=O)NO)cc1)c1ccc(OCC(O)C(C)(C)C)c(C)n1` (centres unmarked) [AM-193], the tubulin acetylation result in assay [1] (10^–6 M) was “consistently induced tubulin acetylation”. In addition, in the assay with 4TO7 cells (setting [2]), the “Aaas 6h Log Fold” value was -0.023, the “Aacs 6h Log Fold” value was found to be 0.016, the “Aagab 6h Log Fold” value came to 0.124 and the “Aak1 6h Log Fold” value was 0.035. The “Aamdc 6h Log Fold” value in the assay on 4TO7 cells (setting [2]) is -0.120. In addition, in the assay with 4TO7 cells (setting [3]), the “Aaas 24h Log Fold” value was -0.051, the “Aacs 24h Log Fold” value was found to be 0.142, the “Aagab 24h Log Fold” value was determined as 0.131 and the “Aak1 24h Log Fold” value was 0.036. The “Aamdc 24h Log Fold” value with 4TO7 cells (setting [3]) is -0.210.

For `CCC(CC)(c1ccc(C(=O)NCCCCCC(=O)NO)cc1)c1ccc(OCC(O)C(C)(C)C)c(C)c1` (centres unmarked) [DK-406], the tubulin acetylation entry in assay [1] (10^–5 M) is recorded as “consistently induced tubulin acetylation”. Further, in the assay on 4TO7 cells (setting [4]), the “Aaas 6h Log Fold” value is reported as 1.019, the “Aacs 6h Log Fold” value is listed as 1.048, the “Aaed1 6h Log Fold” value is -1.030 and the “Aagab 6h Log Fold” value was -1.033. In the assay on 4TO7 cells (setting [4]), the “Aak1 6h Log Fold” value was 1.122. Besides, in the assay on 4TO7 cells (setting [2]), the “Aaas 6h Log Fold” value worked out at 0.00118, the “Aacs 6h Log Fold” value is on record as -0.179, the “Aagab 6h Log Fold” value is listed as -0.076 and the “Aak1 6h Log Fold” value came out at 0.090. The “Aamdc 6h Log Fold” value in the assay on 4TO7 cells (setting [2]) is reported as -0.107. Moreover, in the assay with 4TO7 cells (setting [3]), the “Aaas 24h Log Fold” value is on record as -0.047, the “Aacs 24h Log Fold” value was determined as 0.139, the “Aagab 24h Log Fold” value was 0.108 and the “Aak1 24h Log Fold” value was 0.086. Besides, in the assay on 4TO7 cells (setting [3]), the “Aamdc 24h Log Fold” value is -0.190. Also, in the assay on 4TO7 cells (setting [5]), the “Aaas 48h Log Fold” value was -1.331, the “Aacs 48h Log Fold” value was found to be 1.275, the “Aaed1 48h Log Fold” value was -1.421 and the “Aagab 48h Log Fold” value worked out at 1.489. In addition, the “Aak1 48h Log Fold” value in the assay with 4TO7 cells (setting [5]) is -1.002.
